Source: US9169269B2, “Water-soluble solid pharmaceutical inclusion complexes and their aqueous solutions for oral, ophthalmic, topical or parenteral use containing a macrolide and certain cyclodextrins” (EUTICALS SPA, priority 2010, dated 2015)

Experiments:
Format in all cases: physicochemical
[1] = Stability of Everolimus gamma CD complex versus amorphous Everolimus (powder) at 60° C., total impurities (HPLC); details: powder 60° C.
Experimental: For the HPLC determination of the chromatographic purity of Temsirolimus and Everolimus: Column: Zorbax SB-C18; 3.5 μm (75×4.6 mm), Precolumn: Symmetry Shield RP18; 5 μm (20×3.9 mm).
Mobile Phase composition: • Component A: 900 ml of water, 100 ml of acetonitrile and 50 μl of 50% aqueous acetic acid • Component B: 1000 ml of acetonitrile and 50 μl of 50% aqueous acetic acid Gradient elution: […]
Flow rate: 1 ml/min. Column temperature: 60° C. Volume of injection: 20 μl.
Sample preparation: solution of 0.5 mg/ml in acetonitrile. Detector UV: 278 nm
The stability data on Everolimus complex with CD prepared according each of the examples 2 and 3 are reported on FIG. 3 and on Table 7.
In particular, in FIG. 3, are reported the sum of the related by products originated by degradation (HPLC data in area %) during a stability tests performed on the powder at 60° C. for 96 hours.

[2] = Stability of amorphous and crystalline Rapamycin at 60° C. (HPLC chromatographic purity); details: for decrease of chromatographic purity: after 408 hours (17 days)
Experimental: For the HPLC determination of chromatographic purity of Rapamycin: Column: Thermo BDS Hypersil C18; 3 μm (100×4.6 mm). Mobile Phase composition: isocratic elution • Component A: 50% acetonitrile • Component B: 50% ammonium acetate buffer pH 5.8 (concentration 0.8 g/l of ammonium acetate; the final pH value was brought to a final value of 5.8 with glacial acetic acid)
Flow rate: 1.0 ml/min. Column temperature: 55° C. Volume of injection: 100 μl.
Sample solution: weight 25 mg of Rapamycin and dissolve in 100 ml of acetonitrile/water 1/1 v/v (final concentration 0.25 mg/ml). UV detector: 278 nm

[3] = Preliminary stability tests on micronized Rapamycin and in solution (ethanol); details: finely micronized (10^−5 microns) and in solution (ethanol), within few hours
Text: In order to proceed with formulative studies we have performed preliminary stability tests on micronized Rapamycin (10^−5 microns) and in solution (ethanol).

SMILES | HPLC area % of total impurities ([1]; 0 hours) | HPLC area % of total impurities ([1]; 24 hours) | HPLC area % of total impurities ([1]; 48 hours) | HPLC area % of total impurities ([1]; 72 hours) | HPLC area % of total impurities ([1]; 96 hours) | HPLC area % of total impurities ([1]; 168 hours) | chromatographic purity (HPLC data) ([2]; 0 hours) | chromatographic purity (HPLC data) ([2]; 20 hours) | chromatographic purity (HPLC data) ([2]; 96 hours) | chromatographic purity (HPLC data) ([2]; 168 hours) | chromatographic purity (HPLC data) ([2]; 408 hours) | decrease of chromatographic purity [2] | decrease in the assay value [3]
CO[C@H]1C[C@@H]2CC[C@@H](C)[C@@](O)(O2)C(=O)C(=O)N2CCCC[C@H]2C(=O)O[C@H]([C@H](C)C[C@@H]2CC[C@@H](OCCO)[C@H](OC)C2)CC(=O)[C@H](C)/C=C(\C)[C@@H](O)[C@@H](OC)C(=O)[C@H](C)C[C@H](C)/C=C/C=C/C=C/1C [Amorphous Everolimus, Everolimus] | 1.5 area % | 2.44 area % | 4.52 area % | 7.1 area % | 9.2 area % | 14.1 area % |  |  |  |  |  |  | 
CO[C@H]1C[C@@H]2CC[C@@H](C)[C@@](O)(O2)C(=O)C(=O)N2CCCC[C@H]2C(=O)O[C@H]([C@H](C)C[C@@H]2CC[C@@H](O)[C@H](OC)C2)CC(=O)[C@H](C)/C=C(\C)[C@@H](O)[C@@H](OC)C(=O)[C@H](C)C[C@H](C)/C=C/C=C/C=C/1C [Crystalline Rapamycin, Rapamycin] |  |  |  |  |  |  | 99.10 area % | 99.10 area % | 99.10 area % | 99.00 area % | 99.00 area % | the same chromatographic purity | 
CO[C@H]1C[C@@H]2CC[C@@H](C)[C@@](O)(O2)C(=O)C(=O)N2CCCC[C@H]2C(=O)O[C@H]([C@H](C)C[C@@H]2CC[C@@H](O)[C@H](OC)C2)CC(=O)[C@H](C)/C=C(\C)[C@@H](O)[C@@H](OC)C(=O)[C@H](C)C[C@H](C)/C=C/C=C/C=C/1C [Amorphous Rapamycin, Rapamycin] |  |  |  |  |  |  | 98.90 area % | 93.00 area % | 90.00 area % | 88.00 area % | 84.90 area % | −14% | 
CO[C@H]1C[C@@H]2CC[C@@H](C)[C@@](O)(O2)C(=O)C(=O)N2CCCC[C@H]2C(=O)O[C@H]([C@H](C)C[C@@H]2CC[C@@H](O)[C@H](OC)C2)CC(=O)[C@H](C)/C=C(\C)[C@@H](O)[C@@H](OC)C(=O)[C@H](C)C[C@H](C)/C=C/C=C/C=C/1C [Rapamycin] |  |  |  |  |  |  |  |  |  |  |  |  | −10%
